pEC50, pIC50: −log10 of the molar value.

Results on 1 compound are retold here after US20080107623A1, “Inhibitors of Hepatitis C Virus” (Bristol-Myers Squibb Company, priority 2006, published 2008).

In experiment [1] the target is T1, HCV NS3/4A protease complex, BMS strain (UniProt P27958, species not given/STRAIN_BMS).
T1 construct: said of H77 and J4L6S, not expressly of BMS; These are given for the H77 and J4L6S constructs only
Kind of experiment: FRET peptide assay to monitor HCV NS3/4A proteolytic activity (BMS strain). The conditions noted are these: NS3/4A BMS strain; read-out: IC50 Activity Range. The format is biochemical, HCV genotype 1a. An excerpt:
HCV NS3 protease complexes, derived from the BMS strain, H77 strain or J4L6S strain, were generated, as described below. These purified recombinant proteins were generated for use in a homogeneous assay (see below) to provide an indication of how effective compounds of the present disclosure would be in inhibiting HCV NS3 proteolytic activity.
Serum from an HCV-infected patient was obtained from Dr. T. Wright, San Francisco Hospital. An engineered full-length cDNA (compliment deoxyribonucleic acid) template of the HCV genome (BMS strain) was constructed from DNA fragments obtained by reverse transcription-PCR (RT-PCR) of serum RNA (ribonucleic acid) and using primers selected on the basis of homology between other genotype 1a strains. From the determination of the entire genome sequence, a genotype 1a was assigned to the HCV isolate according to the classification of Simmonds et al. (See P Simmonds, K A Rose, S Graham, S W Chan, F McOmish, B C Dow, E A Follett, P L Yap and H Marsden, J. Clin. Microbiol., 31(6), 1493-1503 (1993)). […] The infectious clones, H77 (1a genotype) and J4L6S (1b genotype) were obtained from R. Purcell (NIH) and the sequences are published in Genbank (AAB67036, see Yanagi, M., Purcell, R. H., Emerson, S. U. and Bukh, J. Proc. Natl. Acad. Sci. U.S.A. 94(16),8738-8743 (1997); AF054247, see Yanagi, M., St Claire, M., Shapiro, M., Emerson, S. U., Purcell, R. H. and Bukh, J, Virology 244 (1), 161-172. (1998)).
NS3/4A protease complex-containing fractions were pooled and loaded on a desalting column Superdex-S200 pre-equilibrated with buffer D (25 mM HEPES, pH 7.5, 20% glycerol, 300 mM NaCl, 0.2% Triton X-100, 10 mM βME). Sample was loaded at a flow rate of 1 mL/min. NS3/4A protease complex-containing fractions were pooled and concentrated to approximately 0.5 mg/ml. The purity of the NS3/4A protease complexes, derived from the BMS, H77 and J4L6S strains, were judged to be greater than 90% by SDS-PAGE and mass spectrometry analyses. The enzyme was stored at −80° C., thawed on ice and diluted prior to use in assay buffer.
The purpose of this in vitro assay was to measure the inhibition of HCV NS3 protease complexes, derived from the BMS strain, H77 strain or J4L6S strain, as described above, by compounds of the present disclosure. This assay provides an indication of how effective compounds of the present disclosure would be in inhibiting HCV NS3 proteolytic activity.
In order to monitor HCV NS3/4A protease activity, an NS3/4A peptide substrate was used. The substrate was RET SI (Resonance Energy Transfer Depsipeptide Substrate; AnaSpec, Inc. cat #22991) (FRET peptide), described by Taliani et al. in Anal. Biochem. 240(2):60-67 (1996). […] The peptide also contains a fluorescence donor, EDANS, near one end of the peptide and an acceptor, DABCYL, near the other end. The fluorescence of the peptide is quenched by […] resonance energy transfer (RET) between the donor and the acceptor, but as the NS3 protease cleaves the peptide the products are released from RET quenching and the fluorescence of the donor becomes apparent.
The peptide substrate was incubated with one of the three recombinant NS3/4A protease complexes, in the absence or presence of a compound of the present disclosure. The inhibitory effects of a compound was determined by monitoring the formation of fluorescent reaction product in real time using a Cytofluor Series 4000. […]

The test system of experiment [2] is HCV replicon (Renilla luciferase reporter) in HUH-7 cells. Kind of experiment: HCV replicon luciferase reporter assay. The conditions noted are these: Huh-7, 96 h, 4 days. The format is cell-based, HCV strain 1b. The text has this: As a secondary assay, EC50 determinations from the replicon FRET assay were confirmed in a replicon luciferase reporter assay. Utilization of a replicon luciferase reporter assay was first described by Krieger et al (Krieger N, Lohmann V, and Bartenschlager R, J. Virol. 75(10):4614-4624 (2001)). The replicon construct described for our FRET assay was modified by inserting cDNA encoding a humanized form of the Renilla luciferase gene and a linker sequence fused directly to the 3′-end of the luciferase gene. This insert was introduced into the replicon construct using an AscI restriction site located in core, directly upstream of the neomycin marker gene. The adaptive mutation at position 1179 (serine to isoleucine) was also introduced (Blight K J, Kolykhalov, A A, Rice, C M, Science 290(5498):1972-1974). […] Following 4 days in a 37° C./5% CO2 incubator, cells were analyzed for Renilla Luciferase activity using the Promega Dual-Glo Luciferase Assay System. […] Plates were read on a Packard TopCount NXT using a luminescence program.
The percentage inhibition was calculated using the formula below: % control=average luciferase signal in experimental wells (+compound) average luciferase signal in DMSO control wells (− compound)
The values were graphed and analyzed using XLfit to obtain the EC50 value.
For orientation: A replicon is a self-replicating genome or part of one, used to study replication in cells.

T1 sequence (P27958 1027-1657, change not shown, one chain of several): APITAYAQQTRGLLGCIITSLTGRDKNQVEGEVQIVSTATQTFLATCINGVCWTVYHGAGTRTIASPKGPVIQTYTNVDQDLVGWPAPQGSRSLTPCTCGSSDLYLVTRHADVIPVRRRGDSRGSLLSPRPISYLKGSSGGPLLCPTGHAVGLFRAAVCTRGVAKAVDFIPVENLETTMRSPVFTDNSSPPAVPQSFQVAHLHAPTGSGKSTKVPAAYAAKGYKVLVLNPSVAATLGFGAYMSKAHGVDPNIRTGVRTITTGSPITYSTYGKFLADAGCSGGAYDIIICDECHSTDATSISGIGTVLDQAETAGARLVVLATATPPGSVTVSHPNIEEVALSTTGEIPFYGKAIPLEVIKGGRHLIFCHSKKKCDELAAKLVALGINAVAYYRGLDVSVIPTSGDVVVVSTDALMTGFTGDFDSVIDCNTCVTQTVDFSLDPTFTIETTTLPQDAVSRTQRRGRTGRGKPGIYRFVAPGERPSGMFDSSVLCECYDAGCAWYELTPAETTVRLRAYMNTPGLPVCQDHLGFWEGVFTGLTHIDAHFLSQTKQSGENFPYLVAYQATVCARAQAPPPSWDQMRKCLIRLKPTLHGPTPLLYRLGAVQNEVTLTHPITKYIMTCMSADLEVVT

Turning to `COc1c(O[C@@H]2C[C@H]3C(=O)N[C@]4(C(=O)NS(=O)(=O)C5CC5)C[C@H]4/C=C\CCCCC[C@H](NC(=O)OC(C)(C)C)C(=O)N3C2)ccc2c(Cl)nccc12` [Compound 3], the pIC50 (usually −log10 of the IC50, conventionally taken in molar units) in experiment [1] was more than 7.00. Further, the pEC50 (in general, the EC50 on a negative log10 scale, so that one unit is a factor of ten) in experiment [2] is 8.26.
